Literature values, collected in patent US20210393545A1, “NATURAL PRODUCT COMPOSITION FOR STIMULATING HAIR GROWTH” (priority 2018, published 2021).

Columns and labels:
OR2AT4 = target: T1, OR2AT4 (Homo sapiens, UniProt A6NND4); details: human hair follicles ex vivo
T1 construct: from tissue; host or cells: human hair follicles (outer root sheath epithelium), ex vivo
T1 sequence (A6NND4 1-320): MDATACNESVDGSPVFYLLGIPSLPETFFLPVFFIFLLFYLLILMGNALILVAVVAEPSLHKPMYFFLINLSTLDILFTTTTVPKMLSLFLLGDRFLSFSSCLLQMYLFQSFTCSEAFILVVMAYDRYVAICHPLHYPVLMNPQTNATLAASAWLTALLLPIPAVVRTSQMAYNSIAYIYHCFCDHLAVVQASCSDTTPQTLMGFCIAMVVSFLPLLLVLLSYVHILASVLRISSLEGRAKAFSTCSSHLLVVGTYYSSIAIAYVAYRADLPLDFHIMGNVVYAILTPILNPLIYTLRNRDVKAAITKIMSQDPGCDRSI

[1] = test system: testosterone 5 alpha reductase; details: reported in the literature

apoptosis (OR2AT4)	human hair growth ex vivo (OR2AT4)	SMILES	production of IGF-1 (OR2AT4)	5 alpha reductase activity [1]
decreasing apoptosis	prolongs human hair growth ex vivo	CC1=CCC(CCC(C)C(C)O)C1(C)C (stereo not shown) [Sandalore®, 3-methyl-5(2,2,3-Trimethylcyclepent-3-en-1-yl) pentan-2-ol]	increasing production of the anagen-prolonging growth factor IGF-1	
		CC(C)c1cc2c(c(O)c1O)[C@@]1(C(=O)O)CCCC(C)(C)[C@@H]1CC2 [carnosic acid]		active ingredient in suppressing 5 alpha reductase activity
